Data reported in article PMC7380166, “How to Study the Metabolism of New Psychoactive Substances for the Purpose of Toxicological Screenings—A Follow-Up Study Comparing Pooled Human Liver S9, HepaRG Cells, and Zebrafish Larvae” (Frontiers in Chemistry, 2020).

Key:
[1] = Authentic human urine sample after intake of 4F-MDMB-BINACA, LC-HRMS/MS; format: in vivo; conditions: one patient, unknown dose and time point of intake
Procedure: Human blood and urine collected after a suspected intake of drugs of abuse were submitted to the authors' laboratory for regular clinical toxicological analysis. The blood sample was centrifuged, and plasma was separated. The authors' standard liquid–liquid extraction for human plasma screening was used (Maurer et al., [2016]). Briefly, 1,000 μl of plasma was mixed with 100 μl of internal standard (0.01 μg/μl trimipramine-d3 in methanol) and extracted with 5,000 μl of a mixture of diethyl ether:ethyl acetate (1:1, v/v) after addition of 2,000 μl of saturated sodium sulfate solution. Phase separation was mediated by centrifugation. The organic layer was transferred into a flask and evaporated to dryness at 60°C under reduced pressure. The aqueous residue was then alkalized with 500 μl of 1 M sodium hydroxide and extracted a second time with 5,000 μl of the diethyl ether:ethyl acetate mixture. The organic extract was transferred to the same flask and evaporated as described before. The combined residues were dissolved in 100 μl of methanol and transferred into an autosampler vial, and 5 μl was injected onto the LC-HRMS/MS system. An aliquot of the human urine sample (100 μl) was prepared according to a previous study by precipitation with 500 μl of acetonitrile (Wissenbach et al., [2011]). The mixture was shaken and centrifuged (18,407 × g, 2 min). […]

hCES1b = target: T1, hCES1b (Homo sapiens, UniProt P23141); assay: Esterases activity screening, hCES1b; format: in vitro ADME; set-up: key: +, detected; –, not detected; conditions: 100 μM 4F-MDMB-BINACA, 0.2 mg protein/ml, duplicate
T1 construct: purchased Corning
T1 sequence (P23141 18-567): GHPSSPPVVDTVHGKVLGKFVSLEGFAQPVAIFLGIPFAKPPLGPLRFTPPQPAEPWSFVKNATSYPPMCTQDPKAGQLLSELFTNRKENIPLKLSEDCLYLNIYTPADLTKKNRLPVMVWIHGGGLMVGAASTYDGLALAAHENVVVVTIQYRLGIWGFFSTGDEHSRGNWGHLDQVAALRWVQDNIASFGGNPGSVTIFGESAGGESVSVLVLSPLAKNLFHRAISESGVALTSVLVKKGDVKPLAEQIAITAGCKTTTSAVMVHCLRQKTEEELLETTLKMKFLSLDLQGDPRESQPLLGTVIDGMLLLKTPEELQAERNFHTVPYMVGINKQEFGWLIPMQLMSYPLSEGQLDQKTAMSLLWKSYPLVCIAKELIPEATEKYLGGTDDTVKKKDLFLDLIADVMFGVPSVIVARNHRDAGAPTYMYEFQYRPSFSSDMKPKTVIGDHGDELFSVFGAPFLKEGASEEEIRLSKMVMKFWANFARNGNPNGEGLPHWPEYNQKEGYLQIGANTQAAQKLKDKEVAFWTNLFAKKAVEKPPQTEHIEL
Procedure: Experiments were performed in accordance with a previous study (Meyer et al., [2015]) with minor modifications. The final volume per reaction tube was 100 μl with a final 4F-MDMB-BINACA concentration of 100 μM and enzyme concentration of 0.2 mg protein/ml for hCES1b, hCES1c, and hCES2. Incubations with pHLM and pHLS9 (0.2 mg protein/ml, each) were performed in a similar manner. Additionally, incubations with human plasma (50 μl pooled human plasma, 40 μl phosphate buffer, and 10 μl substrate) were performed. The reactions were started by adding the enzyme-containing preparation and terminated with an equal volume of ice-cold acetonitrile containing diazepam-d5 (100 μM) as an internal standard. Only plasma incubations were terminated by addition of a three-fold volume of ice-cold acetonitrile. The reaction mixtures were centrifuged at 18,407 × g for 15 min, and then supernatants were transferred to autosampler vials, and 5 μl was injected onto the LC-HRMS/MS system. Negative control incubations without enzyme were prepared to identify non-metabolically formed compounds. All incubations were done in duplicate.

COC(=O)C(NC(=O)c1nn(CCCCF)c2ccccc12)C(C)(C)C (centres unmarked) [4F-MDMB-BINACA, methyl 2-[1-(4-fluorobutyl)-1H-indazole-3-carbonyl]amino-3,3-dimethylbutanoate]
Detectability of the parent compound in urine [1]: barely detectable

O=C(O)c1nn(CCCCF)c2ccccc12 [MB1]
Detection of metabolite in incubation with hCES1b (hCES1b): –
